# Laboratory results as given in patent US20080254152A1, “Methods for Reducing the Effects of Stress on Skin Condition” (priority 2003, published 2008).
# Where no end group is shown, it is not given here.
# System: ICAM-1 expression in HUVECs
# Experiment: ICAM-1 expression in HUVECs chronically treated with CRH, then PMA
# Format: cell-based, Human
# Conditions: data not shown
# Experimental: Following this, the cells were oxidatively stressed for 24 hours with 1 μM PMA (Sigma P8139).
# Receptor antagonists were added to the cells during the pre-treatment period. These included the Glucocorticoid Receptor Antagonist; 2 μM Mifepristone (Sigma M8046) and two CRH receptor antagonists; 200 nM Astressin (Sigma A4933) and 200 nM α-helical CRF peptide antagonist (Sigma C2917).
# ICAM-1 protein in each cell lysate was estimated using the Human sICAM-1 DuoSet ELISA kit (R&D Systems DY720) according to the manufacturer's instructions.
# The capture antibody was diluted to a final concentration of 4 μg/ml in PBS and 100 μl was used to coat each well of a 96-well microtitre plate overnight at room temperature. The plate was then washed three times with wash buffer (0.05% Tween 20 in PBS). Each well received 300 μl of blocking buffer (1% BSA, 5% sucrose and 0.05% sodium azide in PBS), and the plate was incubated at room temperature for 1 hour before being washed as before. Each cell lysate was then diluted 1/200 in reagent diluent (1% BSA in PBS) and 100 μl added to duplicate wells of the antibody coated plate. Eight ICAM-1 standards were prepared in reagent diluent, at concentrations ranging from 0 to 1000 pg/ml, and duplicate 100 μl standards were added to the appropriate wells on the plate. A separate set of standards was routinely used for each plate. The plate was incubated at room temperature for 2 hours before being washed again. 100 μl of detection antibody, diluted to a final concentration of 100 ng/ml, was added to each well and the plate incubated at room temperature for 2 hours. […] The absorbance of the plates was measured at 450 nm with the correction wavelength set at 570 nm.
# A standard curve was plotted of mean absorbance versus ICAM-1 concentration and the line of best fit calculated by regression analysis. The unknown concentration of ICAM-1 in the samples was calculated from this, taking the lysate dilution factor into account.
# To normalise for differences in cell number and total protein concentration, the final result was expressed as ng ICAM-1 per mg of total protein. […]
Substance,"Effect on increased induction of ICAM-1 post-oxidative stress (200 nM CRH receptor antagonist during 5-day CRH pre-treatment, then PMA)",Level of ICAM-1 relative to that induced by oxidative stress after pre-treatment with CRH for five days (200 nM CRH receptor antagonist during CRH pre-treatment),"Change in ICAM-1 secretion after chronic CRH treatment (1 to 100 nM CRH daily for 5 days, then PMA, vs untreated cells)"
astressin,only partially blocked,approximately half,–
"CRH: Corticotrophin Releasing Hormone, Calbiochem 05-23-0050 (SEEPPISLDLTFHLLREVLEMARAEQLAQQAHSNRKLMEII; ends and bridges not checked; UniProt P06850 154-194, looked up)",–,–,significant increase
